This note sets out measurements from PubChem BioAssay AID651807 (Broad Institute, 2012).

Molecules are shown by their SMILES. Where “and” joins values, the source holds several entries; their conditions need not be identical. Equal values may be shown once. Results filed as inconclusive are left out. Calls of active or inactive are those of the source.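 How the source made its calls: active means fitted curve rises past 40% activation at or below the top valid concentration, in every replicate test; inconclusive means replicate tests give mixed outcomes; inactive means all replicate tests inactive, or signal moves in the opposite direction.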

System in one experiment: not listed separately
Put plainly: ARE-bla reporter activation in HepG2 – cell-based, beta-lactamase, dry powder, set 4, Keap1-Nrf2 interaction inhibitor project, dose response (AID 651807). The note with it: ARE-bla HepG2, beta-lactamase FRET ratio 460/530; at 16 µM (top of the series).
On to `O=C1c2ccccc2C(=O)N1CC1c2ccccc2CCN1C(=O)Cc1ccccc1` (stereo not drawn), for which the activation was 14.7% (inactive).

The same experiment, now with this note: ARE-bla HepG2, beta-lactamase FRET ratio 460/530; at 68 µM (top of the series).
Take `O=C1c2ccccc2C(=O)N1CC1=NCCc2ccccc21`: the activation was 9.14% (inactive). Regarding `Cc1ccc(S(=O)(=O)NC[C@@H]2c3ccccc3CCN2C(=O)[C@@H]2CCCC[C@@H]2C(=O)O)c(C)c1`, the activation was 29.9% (inactive). For `O=C(O)c1ccccc1C(=O)NC[C@@H]1c2ccccc2CCN1C(=O)[C@@H]1CCCC[C@@H]1C(=O)O`, the activation is 23.5% (inactive). Take `O=C(O)[C@H]1CCCC[C@H]1C(=O)NC(CN1C(=O)c2ccccc2C1=O)c1ccccc1` (stereo partly drawn): the activation was 25.2% (inactive). In the case of `O=C(O)[C@H]1CCCC[C@H]1C(=O)N1CCc2ccccc2C1CCN1C(=O)c2ccccc2C1=O` (stereo partly drawn), the activation is 17.3% (inactive).

`O=C(NC[C@@H]1c2ccccc2CCN1C(=O)[C@@H]1CCCC[C@@H]1C(=O)O)c1ccccc1CO`: the activation was 11% (inactive). As for `O=C1c2ccccc2C(=O)N1C[C@H]1NCCc2ccccc21`, the activation is 43.8% (inactive).

For `O=C(O)C1CCCCC1C(=O)NCC1c2ccccc2CCN1C(=O)Cc1ccccc1` (stereo not drawn), the activation was 20.2% (inactive). On to `O=C(Cc1ccccc1)NC[C@@H]1c2ccccc2CCN1C(=O)[C@@H]1CCCC[C@@H]1C(=O)O`, for which the activation is 6.95% (inactive). Same read-out and setting: in the case of `O=C(O)[C@@H]1CCCN1C(=O)N1CCc2ccccc2[C@H]1CN1C(=O)c2ccccc2C1=O` it was 27% (inactive); in that of `O=C(NC[C@@H]1c2ccccc2CCN1C(=O)[C@@H]1CCCC[C@@H]1C(=O)O)OCC1c2ccccc2-c2ccccc21`, -31.2% (inactive); in that of `COC(=O)[C@@H]1CCCC[C@@H]1C(=O)N1CCc2ccccc2[C@H]1CN1C(=O)c2ccccc2C1=O`, 25.5% (inactive). As to `O=C(O)C1CCCCC1C(=O)N1CCc2ccccc2[C@H]1C(=O)NCCc1ccccc1` (stereo partly drawn), the activation was 2.65% (inactive). `COc1ccccc1CCNC(=O)[C@@H]1c2ccccc2CCN1C(=O)C1CCCCC1C(=O)O` (stereo partly drawn): the activation was -0.279% (inactive). Consider `O=C(O)C1CCCCC1C(=O)N1CCCCC1CN1C(=O)c2ccccc2C1=O` (stereo not drawn), for which the activation is 16.6% (inactive).

Turning to `Cc1cc(C)c(S(=O)(=O)Nc2nc(N(C)C)nc3ccccc23)c(C)c1`, the activation is -5.99% (inactive).

Regarding `O=C(O)C1CCCCC1C(=O)Nc1ccccc1CN1C(=O)c2ccccc2C1=O` (stereo not drawn), the activation was 6.93% (inactive). Same read-out and setting: as for `O=C(O)C1CCCCC1C(=O)N1CCc2ccccc2C1CN1C(=O)c2ccccc2S1(=O)=O` (stereo not drawn), the figure is 35% (inactive); as for `Cc1cc(C)c(S(=O)(=O)Nc2nc(NCCO)nc3ccccc23)c(C)c1`, -10.1% (inactive); as for `Cc1ccc(S(=O)(=O)NC(=O)[C@@H]2c3ccccc3CCN2C(=O)[C@@H]2CCCC[C@@H]2C(=O)O)cc1`, 13.2% (inactive) and 28.7% (inactive). Regarding `COC(=O)CNc1nc(NS(=O)(=O)c2c(C)cc(C)cc2C)c2ccccc2n1`, the activation is -4.15% (inactive).

In the case of `O=C(O)[C@H]1CCCC[C@H]1C(=O)N1CCc2ccccc2[C@H]1CNc1nc(Cl)nc2ccccc12`, the activation was -4.32% (inactive). On the same count and under the same terms, as for `O=C(NC[C@@H]1c2ccccc2CCN1C(=O)[C@@H]1CCCC[C@@H]1C(=O)O)c1ccccc1`, the figure is 6.57% (inactive). Consider `O=C(O)CC(=O)N1CCc2ccccc2C1CN1C(=O)c2ccccc2C1=O` (stereo not drawn), for which the activation was 31.6% (inactive).

For `O=C(NC[C@@H]1c2ccccc2CCN1C(=O)[C@@H]1CCCC[C@@H]1C(=O)O)c1ccc(CN2CCOCC2)cc1`, the activation is 13.2% (inactive).

The test system of another experiment is ARE-bla HepG2, beta-lactamase FRET ratio 460/530. The description is as above.
Details: not given
With `O=C(O)c1ccccc1C(=O)N1CCc2ccccc2C1CN1C(=O)c2ccccc2C1=O` (stereo not drawn), the AC40 was 41.3 µM. `Cc1ccc(S(=O)(=O)Nc2cc(C(C(=O)OC(C)C)C(=O)C(F)(F)F)c(O)c3ccccc23)c(C)c1` (stereo not drawn): the AC40 is 10.5 µM. With `Cc1cc(C)c(S(=O)(=O)Nc2nc(C(C(=O)OC(C)C)C(=O)C(F)(F)F)nc3ccccc23)c(C)c1` (stereo not drawn), the AC40 was 27.3 µM. For the compound `COc1ccc(CCN=C2C=C(NS(=O)(=O)c3c(C)cc(C)cc3C)c3ccccc3C2=O)cc1`, the AC40 is 10.6 µM. As to `Cc1ccc(S(=O)(=O)NNc2nc(N3CC(O)CC3C(=O)O)nc3ccccc23)cc1` (stereo not drawn), the AC40 is 13.5 µM. On the same count and under the same terms, in the case of `O=C(O)C1CCCCC1C(=O)N1CCc2ccccc2C1CN1C(=O)[C@H]2CCCC[C@H]2C1=O` (stereo partly drawn) it was 29.1 µM; in that of `O=C(O)C1CCCCC1C(=O)N1CCc2ccccc2[C@H]1C(=O)NC12CC3CC(CC(C3)C1)C2` (stereo partly drawn), 45.6 µM; in that of `NC(=O)c1ccccc1C(=O)NC[C@@H]1c2ccccc2CCN1C(=O)[C@@H]1CCCC[C@@H]1C(=O)O`, 48.7 µM. In the case of `Cc1cc(C)c(S(=O)(=O)Nc2cc(C(C(=O)OC(C)C)C(=O)C(F)(F)F)c(O)c3ccccc23)c(C)c1` (stereo not drawn), the AC40 is 4.2 µM. Same read-out and setting: in the case of `CC(C)OC(=O)C(C(=O)C(F)(F)F)c1cc(NS(=O)(=O)c2ccccc2)c2ccccc2c1O` (stereo not drawn) it was 27.2 µM; in that of `O=S(=O)(Nc1nc(NCC2CCCCC2)nc2ccccc12)c1ccccc1`, 32.2 µM. The same measure, in the same setting: as for `O=C1c2ccccc2C(=O)N1C[C@@H]1c2ccccc2CCN1C(=O)OCc1ccccc1`, the figure is 38.2 µM; as for `Cc1ccc(S(=O)(=O)NNc2nc(C(C(=O)OC(C)C)C(=O)C(F)(F)F)nc3ccccc23)cc1` (stereo not drawn), 33 µM; as for `Cc1cc(C)c(S(=O)(=O)Nc2cc(C(C(=O)OCc3ccccc3)C(=O)OCc3ccccc3)c(O)c3ccccc23)c(C)c1`, 32.7 µM. For `Cc1ccc(S(=O)(=O)Nc2cc(C(C(=O)OC(C)C)C(=O)C(F)(F)F)c(O)c3ccccc23)cc1` (stereo not drawn), the AC40 is 9.52 µM.

Consider `Cc1ccccc1S(=O)(=O)Nc1cc(C(C(=O)OC(C)C)C(=O)C(F)(F)F)c(O)c2ccccc12` (stereo not drawn), for which the AC40 is 8.84 µM.

As for `O=C(NCCc1ccccc1)c1ccccc1C(=O)NC[C@@H]1c2ccccc2CCN1C(=O)C1CCCCC1C(=O)O` (stereo partly drawn), the AC40 is 17 µM.
